Laboratory results reported in US20230141887A1, “CRYSTAL FORM OF DIAZASPIROPYRAN COMPOUND” (MEDSHINE DISCOVERY INC., priority 2020, published 2023).
Changes are numbered by the printed parent chain.

Columns and labels:
FLT3(K663Q) = biological target: T1, FLT3(K663Q) (Homo sapiens, UniProt P36888, K663Q); assay type: binding
T1 sequence (P36888 27-993 K663Q): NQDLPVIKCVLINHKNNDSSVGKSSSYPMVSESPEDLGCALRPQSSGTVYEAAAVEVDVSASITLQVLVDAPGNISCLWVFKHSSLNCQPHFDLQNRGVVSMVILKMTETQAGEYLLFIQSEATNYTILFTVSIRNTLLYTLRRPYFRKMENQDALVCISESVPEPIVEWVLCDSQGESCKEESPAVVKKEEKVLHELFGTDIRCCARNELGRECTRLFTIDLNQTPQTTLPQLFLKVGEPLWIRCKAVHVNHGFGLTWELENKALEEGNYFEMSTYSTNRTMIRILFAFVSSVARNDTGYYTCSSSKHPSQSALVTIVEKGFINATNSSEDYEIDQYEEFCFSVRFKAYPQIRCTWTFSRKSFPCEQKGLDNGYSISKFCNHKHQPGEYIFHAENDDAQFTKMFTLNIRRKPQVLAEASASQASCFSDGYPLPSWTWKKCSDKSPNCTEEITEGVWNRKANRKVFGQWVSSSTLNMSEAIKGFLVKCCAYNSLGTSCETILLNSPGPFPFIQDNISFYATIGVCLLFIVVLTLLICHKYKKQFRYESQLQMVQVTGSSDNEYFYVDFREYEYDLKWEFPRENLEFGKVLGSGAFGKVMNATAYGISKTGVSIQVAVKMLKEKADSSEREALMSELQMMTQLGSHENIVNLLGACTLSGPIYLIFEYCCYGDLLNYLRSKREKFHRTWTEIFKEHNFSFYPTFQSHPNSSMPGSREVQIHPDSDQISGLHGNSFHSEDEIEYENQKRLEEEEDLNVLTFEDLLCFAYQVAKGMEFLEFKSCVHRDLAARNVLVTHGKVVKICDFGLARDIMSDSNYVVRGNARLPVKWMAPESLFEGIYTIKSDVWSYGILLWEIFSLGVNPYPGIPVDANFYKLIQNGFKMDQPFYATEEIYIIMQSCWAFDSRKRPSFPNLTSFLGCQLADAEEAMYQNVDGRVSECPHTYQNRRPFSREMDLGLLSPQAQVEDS
Method: (§1) The assay was carried out using KINOMEscan™ technology. The assay compounds were stored in 100% DMSO. The assay was carried out by means of 3-fold dilution and 11-point fitting. All compounds used for Kd determination were dispersed by ultrasound, then directly diluted and tested. All reactions were carried out in a 384-well polypropylene plate. Each portion has a final volume of 0.02 ml. The plate was incubated with shaking at room temperature for 1 hour, and then processed. The kinase concentration in the eluent was finally determined by qPCR method. Kd was obtained by fitting.

FLT3(R834Q) = biological target: T2, FLT3(R834Q) (Homo sapiens, UniProt P36888, R834Q); assay type: binding
T2 sequence (P36888 27-993 R834Q): T1 sequence (P36888 27-993 K663Q) with Q637K, R808Q
Method: as §1

## CCc1nc(C(N)=O)c(Nc2ccc(N3CCC4(CCN(C)CC4)CC3)c(C)c2)nc1NC1CCOCC1.O=C(O)C(F)(F)F
FLT3(K663Q); FLT3(K663Q)
  Kd: 10 nM
FLT3(K663Q); FLT3 (K663Q), ratio of Kd versus compound B
  activity higher than that of the known compound B: 5.9 times
FLT3(R834Q)
  Kd: 31 nM
